Data on two compounds can be found in ChEMBL document CHEMBL5303573, “Mapping human microbiome drug metabolism by gut bacteria and their genes” (Nature, 2019).

Data set [1] can be described thus: The drug is tested on Clostridium hathewayi strain: DSM13479 for biotransformation. The drug concentrations were measured before and after a 12-h incubation by liquid-chromatography-coupled mass spectrometry (LC–MS). The settings on record: hungatella hathewayi, 2 µM.
For data set [2] the following is noted: enterocloster bolteae, 12 h, 2 µM.
Description: The drug is tested on Clostridium bolteae strain: ATCCBAA-613 for biotransformation. The drug concentrations were measured before and after a 12-h incubation by liquid-chromatography-coupled mass spectrometry (LC–MS)
Data set [3] is described as follows: The drug is tested on Clostridium spiroforme strain: DSM1552 for biotransformation. The drug concentrations were measured before and after a 12-h incubation by liquid-chromatography-coupled mass spectrometry (LC–MS). The settings on record: thomasclavelia spiroformis, 2 µM.
A short description of data set [4]: The drug is tested on Coprococcus comes strain: ATCC27758 for biotransformation. The drug concentrations were measured before and after a 12-h incubation by liquid-chromatography-coupled mass spectrometry (LC–MS). It counts as ADME. Also on record: dose 2 uM, timepoint 0 vs 12 hours. The settings on record: 2 µM.
The conditions of data set [5]: bacteroides stercoris, 12 h, 2 µM.
Description: The drug is tested on Bacteroides stercoris strain: ATCC43183 for biotransformation. The drug concentrations were measured before and after a 12-h incubation by liquid-chromatography-coupled mass spectrometry (LC–MS)
Data set [6] in a line: The drug is tested on Collinsella intestinalis strain: DSM13280 for biotransformation. The drug concentrations were measured before and after a 12-h incubation by liquid-chromatography-coupled mass spectrometry (LC–MS). The note with it: 2 µM.
The conditions of data set [7]: roseburia intestinalis, 12 h, 2 µM.
Description: The drug is tested on Roseburia intestinalis strain: L1-82 for biotransformation. The drug concentrations were measured before and after a 12-h incubation by liquid-chromatography-coupled mass spectrometry (LC–MS)
Data set [8] has as its target T1, SGNH hydrolase-type esterase domain-containing protein (Phocaeicola dorei, UniProt B6W1J1).
T1 sequence (B6W1J1 whole entry): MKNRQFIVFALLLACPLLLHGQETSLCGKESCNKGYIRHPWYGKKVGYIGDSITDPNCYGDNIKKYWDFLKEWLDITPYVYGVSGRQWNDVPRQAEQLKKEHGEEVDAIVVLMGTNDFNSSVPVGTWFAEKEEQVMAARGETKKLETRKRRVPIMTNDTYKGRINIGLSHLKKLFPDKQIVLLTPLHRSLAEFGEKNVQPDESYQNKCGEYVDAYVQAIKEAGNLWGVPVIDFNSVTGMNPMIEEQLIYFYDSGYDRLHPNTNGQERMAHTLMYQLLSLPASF
Description: (§1) The drug is tested on Bacteroides dorei strain: DSM17855 for biotransformation. The drug concentrations were measured before and after a 12-h incubation by liquid-chromatography-coupled mass spectrometry (LC–MS). It counts as ADME. Also on record: dose 2 uM. The settings on record: 2 µM.

The target in data set [9] is T2, Acyltransferase 3 domain-containing protein (Phocaeicola dorei, UniProt B6W2J3).
T2 sequence (B6W2J3 whole entry): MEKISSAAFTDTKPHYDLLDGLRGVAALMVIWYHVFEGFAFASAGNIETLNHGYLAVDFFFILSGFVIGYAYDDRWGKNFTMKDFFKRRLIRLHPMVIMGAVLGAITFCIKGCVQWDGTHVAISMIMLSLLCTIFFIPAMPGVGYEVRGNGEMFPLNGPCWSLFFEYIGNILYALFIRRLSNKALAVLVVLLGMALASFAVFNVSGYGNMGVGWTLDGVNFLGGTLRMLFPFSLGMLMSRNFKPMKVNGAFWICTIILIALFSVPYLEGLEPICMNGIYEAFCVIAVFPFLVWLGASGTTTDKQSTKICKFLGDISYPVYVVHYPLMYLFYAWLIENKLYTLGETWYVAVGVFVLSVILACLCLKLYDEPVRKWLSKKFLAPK
The data set is described as §1. It counts as ADME. The settings on record: 2 µM. Also on record: dose 2 uM.

The target of another data set is T3, Esterase (Phocaeicola dorei, UniProt B6W2J6).
T3 sequence (B6W2J6 whole entry): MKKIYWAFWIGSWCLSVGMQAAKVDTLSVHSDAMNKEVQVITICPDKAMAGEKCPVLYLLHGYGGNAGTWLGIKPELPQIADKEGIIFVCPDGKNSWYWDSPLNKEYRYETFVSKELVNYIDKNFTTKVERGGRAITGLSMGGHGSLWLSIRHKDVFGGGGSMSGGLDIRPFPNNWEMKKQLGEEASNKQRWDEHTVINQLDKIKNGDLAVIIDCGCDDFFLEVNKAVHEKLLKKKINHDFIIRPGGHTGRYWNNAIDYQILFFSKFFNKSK
Described as §1. It counts as ADME. The settings on record: 2 µM. Also on record: dose 2 uM.

For data set [10], the target named is T4, Nitroreductase domain-containing protein (Phocaeicola dorei, UniProt B6W3P3).
T4 sequence (B6W3P3 whole entry): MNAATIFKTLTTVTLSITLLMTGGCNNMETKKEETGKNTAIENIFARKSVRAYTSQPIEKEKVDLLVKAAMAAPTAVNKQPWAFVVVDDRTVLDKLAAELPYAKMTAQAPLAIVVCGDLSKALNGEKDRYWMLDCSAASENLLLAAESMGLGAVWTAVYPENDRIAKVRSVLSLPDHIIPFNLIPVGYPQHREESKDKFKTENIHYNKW
The description is as §1. It counts as ADME. Also on record: dose 2 uM. The note with it: 2 µM.

The target of data set [11] is T5, SGNH hydrolase-type esterase domain-containing protein (Phocaeicola dorei, UniProt B6VTE7).
T5 sequence (B6VTE7 whole entry): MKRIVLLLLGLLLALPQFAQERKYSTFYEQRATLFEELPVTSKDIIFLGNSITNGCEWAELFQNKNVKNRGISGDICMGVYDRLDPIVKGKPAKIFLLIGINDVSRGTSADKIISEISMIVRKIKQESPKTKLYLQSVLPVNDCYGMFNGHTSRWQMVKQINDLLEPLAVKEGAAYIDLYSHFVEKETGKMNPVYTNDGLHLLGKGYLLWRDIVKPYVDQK
The description is as §1. It counts as ADME. Also on record: dose 2 uM. The settings on record: 2 µM.

In data set [12] the target is T6, SGNH hydrolase-type esterase domain-containing protein (Phocaeicola dorei, UniProt B6W293).
T6 sequence (B6W293 whole entry): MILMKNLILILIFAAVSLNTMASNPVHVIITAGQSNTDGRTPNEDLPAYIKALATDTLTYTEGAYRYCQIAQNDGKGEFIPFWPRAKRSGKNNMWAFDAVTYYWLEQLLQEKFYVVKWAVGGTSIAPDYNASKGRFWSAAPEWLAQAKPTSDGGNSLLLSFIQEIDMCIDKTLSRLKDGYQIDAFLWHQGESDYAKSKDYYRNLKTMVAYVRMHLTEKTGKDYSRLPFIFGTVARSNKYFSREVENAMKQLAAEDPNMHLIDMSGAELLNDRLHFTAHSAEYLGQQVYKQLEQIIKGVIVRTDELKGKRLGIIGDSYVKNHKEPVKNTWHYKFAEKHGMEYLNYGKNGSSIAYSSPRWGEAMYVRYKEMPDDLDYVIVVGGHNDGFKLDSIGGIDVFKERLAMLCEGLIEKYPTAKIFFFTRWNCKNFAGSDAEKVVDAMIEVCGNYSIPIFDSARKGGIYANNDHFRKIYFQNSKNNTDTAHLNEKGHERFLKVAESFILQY
The data set is described as §1. It counts as ADME. Also on record: dose 2 uM. The settings on record: 2 µM.

Data set [13] addresses T7, Steroid 5-alpha reductase C-terminal domain-containing protein (Phocaeicola dorei, UniProt B6W0N3).
T7 sequence (B6W0N3 whole entry): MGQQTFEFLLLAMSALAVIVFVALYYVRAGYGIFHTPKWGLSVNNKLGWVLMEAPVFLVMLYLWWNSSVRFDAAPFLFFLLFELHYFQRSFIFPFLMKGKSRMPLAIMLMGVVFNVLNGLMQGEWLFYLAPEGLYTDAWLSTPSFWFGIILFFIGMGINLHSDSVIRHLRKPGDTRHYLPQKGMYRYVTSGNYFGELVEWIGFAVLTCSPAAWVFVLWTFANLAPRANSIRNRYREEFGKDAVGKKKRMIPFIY
The description is as §1. It counts as ADME. Also on record: dose 2 uM. The note with it: 2 µM.

For data set [14] the following is noted: bacteroides fragilis, 12 h, 2 µM.
Description: The drug is tested on Bacteroides fragilis strain: NCTC 9343 for biotransformation. The drug concentrations were measured before and after a 12-h incubation by liquid-chromatography-coupled mass spectrometry (LC–MS)
Data set [15] can be described thus: The drug is tested on Alistipes indistinctus strain: DSM22520 for biotransformation. The drug concentrations were measured before and after a 12-h incubation by liquid-chromatography-coupled mass spectrometry (LC–MS). The settings on record: 2 µM.

For `C[C@@H]1CC[C@H]2[C@@H](C)C(=O)O[C@@H]3O[C@@]4(C)CC[C@@H]1[C@]32OO4` [ARTEMISININ], the “Bacterial Biotransformation” value in data set [1], in data set [2], in [3], in data set [4], in data set [5] and in data set [6] was “Compound metabolized” in each case. Besides, the “Bacterial Biotransformation” value is recorded as “Compound metabolized” in data set [7]; “Compound NOT metabolized” in [8]; “Compound NOT metabolized” in [9]; “Compound NOT metabolized” on Esterase; “Compound NOT metabolized” in [10]; “Compound NOT metabolized” in [11]. Moreover, the “Bacterial Biotransformation” value is on record as “Compound NOT metabolized” in data set [12], “Compound NOT metabolized” in [13], “Compound metabolized” in [14] and “Compound metabolized” in data set [15].

As for `O=C(O)c1cc(/N=N/c2ccc(S(=O)(=O)Nc3ccccn3)cc2)ccc1O` [SULFASALAZINE], the “Bacterial Biotransformation” value was “Compound metabolized” in [2]; “Compound metabolized” in [4]; “Compound metabolized” in data set [5]; “Compound metabolized” in data set [6]; “Compound metabolized” in data set [7]; “Compound NOT metabolized” in [8]. Moreover, the “Bacterial Biotransformation” value (in data set [9]; at Esterase; in data set [10]; in data set [11]; in [12]; in data set [13]) was “Compound NOT metabolized” each time. For the same compound, the “Bacterial Biotransformation” value in data set [14] and in [15] was “Compound metabolized” throughout.
